The results in this text go back to PMC6017447, “Novel 6- and 7-Substituted Coumarins with Inhibitory Action against Lipoxygenase and Tumor-Associated Carbonic Anhydrase IX” (Molecules : A Journal of Synthetic Chemistry and Natural …, 2018).

One data set addresses hCA IV (Homo sapiens, UniProt P22748). Description: stopped flow CO2 hydrase assay, hCA IV.
Data set [1] deals with T1, soybean lipoxygenase (LOX) (Glycine max, UniProt P08170).
T1 construct: purchased Sigma Chemical, Co. (St. Louis, MO, USA)
T1 sequence (P08170 1-839): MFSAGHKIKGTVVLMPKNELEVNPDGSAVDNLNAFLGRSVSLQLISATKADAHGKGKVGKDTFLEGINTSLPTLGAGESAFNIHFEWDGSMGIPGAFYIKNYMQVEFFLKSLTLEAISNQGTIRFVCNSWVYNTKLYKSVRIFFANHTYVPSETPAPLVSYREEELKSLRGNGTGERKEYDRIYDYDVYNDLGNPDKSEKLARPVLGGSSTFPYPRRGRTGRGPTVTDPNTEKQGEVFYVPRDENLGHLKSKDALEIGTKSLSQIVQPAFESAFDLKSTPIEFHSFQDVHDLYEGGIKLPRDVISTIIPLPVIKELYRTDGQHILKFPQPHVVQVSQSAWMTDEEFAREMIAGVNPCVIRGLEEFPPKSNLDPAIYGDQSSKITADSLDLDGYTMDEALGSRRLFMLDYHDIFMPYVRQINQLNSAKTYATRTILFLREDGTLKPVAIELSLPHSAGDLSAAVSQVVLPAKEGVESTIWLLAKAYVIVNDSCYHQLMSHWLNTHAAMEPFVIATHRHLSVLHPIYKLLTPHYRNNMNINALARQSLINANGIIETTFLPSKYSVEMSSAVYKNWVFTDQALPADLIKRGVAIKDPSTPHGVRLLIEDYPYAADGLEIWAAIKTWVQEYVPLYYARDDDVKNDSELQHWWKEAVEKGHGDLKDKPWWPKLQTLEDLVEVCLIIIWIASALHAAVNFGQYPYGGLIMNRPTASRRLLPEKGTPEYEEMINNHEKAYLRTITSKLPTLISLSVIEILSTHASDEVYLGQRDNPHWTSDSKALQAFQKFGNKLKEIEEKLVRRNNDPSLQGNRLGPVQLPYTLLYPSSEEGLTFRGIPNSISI
Put plainly: in vitro inhibition of soybean lipoxygenase, UV absorbance based enzyme assay. The class given is biochemical. The note with it: sodium linoleate 0.1 mM, pH 9; for inhibition at 100 µM / % LOX Inhibition at 100 Μμ: 100 μM compound; for inhibition at 100 µM: read-out: % LOX Inhibition at 100 Μμ. The protocol: Most of the LOX inhibitors are antioxidants or free radical scavengers. LOXs contain a non-heme iron per molecule in the enzyme active site as high-spin Fe^2+ in the native state and the high spin Fe^3+ in the activated state.
A DMSO solution of the tested compound was incubated with sodium linoleate (0.1 mM) and 0.2 mL of soybean LOX solution (1/9 × 10^−4 w/v in saline) in buffer pH 9 (tris) and at room temperature.

The target in another data set is hCA I (Homo sapiens, UniProt P00915). Put plainly: stopped flow CO2 hydrase assay, hCA I.
A further data set has as its target hCA IX (Homo sapiens, UniProt Q16790). Put plainly: stopped flow CO2 hydrase assay, hCA IX.
Another data set has as its target hCA II (Homo sapiens, UniProt P00918). Put plainly: stopped flow CO2 hydrase assay, hCA II.

Chain of hCA IV (P22748 19-312): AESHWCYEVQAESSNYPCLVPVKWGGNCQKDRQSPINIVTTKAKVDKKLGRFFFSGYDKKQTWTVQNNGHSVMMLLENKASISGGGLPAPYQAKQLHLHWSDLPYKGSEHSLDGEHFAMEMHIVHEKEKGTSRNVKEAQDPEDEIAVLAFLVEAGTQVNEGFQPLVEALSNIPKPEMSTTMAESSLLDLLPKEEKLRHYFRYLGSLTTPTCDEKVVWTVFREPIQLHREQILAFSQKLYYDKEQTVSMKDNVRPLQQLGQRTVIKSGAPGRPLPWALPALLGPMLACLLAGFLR
Chain of hCA I (P00915 whole entry): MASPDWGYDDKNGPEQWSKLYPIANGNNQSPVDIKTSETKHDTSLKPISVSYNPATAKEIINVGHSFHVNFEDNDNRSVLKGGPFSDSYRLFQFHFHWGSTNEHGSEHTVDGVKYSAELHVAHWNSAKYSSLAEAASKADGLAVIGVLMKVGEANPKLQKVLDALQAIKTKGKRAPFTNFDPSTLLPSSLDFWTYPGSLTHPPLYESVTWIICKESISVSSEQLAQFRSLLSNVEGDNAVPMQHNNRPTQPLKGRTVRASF
Experimental for hCA II: (§1) An Applied Photophysics (Oxford, UK) stopped-flow instrument has been used for assaying the CA catalysed CO2 hydration activity [36]. […] The uncatalyzed rates were determined in the same manner and subtracted from the total observed rates. Stock solutions of inhibitor (0.1 mM) were prepared in distilled-deionized water and dilutions up to 0.01 nM were done thereafter with distilled-deionized water. […] The inhibition constants were obtained by non-linear least-squares methods using PRISM 3, as reported earlier [42, 43, 44, 45, 46, 47, 48, 49, 50] and represent the mean from at least three different determinations. The four CA isoforms were recombinant proteins obtained as reported earlier in our laboratory [42, 43, 44, 45, 46, 47, 48, 49, 50].
Experimental for hCA IV: as §1
Experimental for hCA IX: as §1

For `O=C(COc1ccc2ccc(=O)oc2c1)NCCc1ccccn1` [Compound 10a, 2-((2-Oxo-2H-chromen-7-yl)oxy)-N-(2-(pyridin-2-yl)ethyl)acetamide], the melting point was in the range of 138 to 139 °C. Besides, the Ki at hCA IV is greater than 10 µM. Moreover, in data set [1], the inhibition at 100 µM was 79% and inhibition was half-maximal at 15 µM (IC50). The Ki at hCA I was greater than 10 µM. The compound also gave an inhibition constant Ki at hCA IX of 2.38 µM. The Ki at hCA II was greater than 10 µM.
With “2-((2-Oxo-2H-chromen-6-yl)oxy)-N-(pyridin-4-ylmethyl)acetamide [Compound 11b]”, the “% LOX Inhibition at 100 Μμ” value in data set [1] is 37%.
`COC(=O)c1ccccc1NC(=O)COc1ccc2oc(=O)ccc2c1` [Compound 9b, Methyl 2-(2-((2-oxo-2H-chromen-6-yl)oxy)acetamido)benzoate] yielded a melting point of 213 to 214 °C. For the same compound, the Ki at hCA IV was greater than 10 µM. Further, in data set [1], the inhibition at 100 µM turned out to be 50% and the IC50 was determined as 100 µM. Also, on hCA I, the Ki was greater than 10 µM. On hCA IX, the Ki was 2.04 µM. Also, the inhibition constant Ki on hCA II is greater than 10 µM.
`O=C(COc1ccc2oc(=O)ccc2c1)NCc1ccc(F)cc1` [Compound 6b, N-(4-Fluorobenzyl)-2-((2-oxo-2H-chromen-6-yl)oxy)acetamide] registered a melting point of 158 to 159 °C. This compound also had a Ki at hCA IV greater than 10 µM. The inhibition at 100 µM in data set [1] amounted to 26%. The compound also returned an inhibitory constant (Ki) at hCA I greater than 10 µM. On hCA IX, the Ki stood at 2.78 µM. Also, the Ki at hCA II is greater than 10 µM.
Regarding `O=C(COc1ccc2oc(=O)ccc2c1)NCCc1ccccc1` [Compound 4b, 2-((2-Oxo-2H-chromen-6-yl)oxy)-N-phenethylacetamide], the melting point was in the range of 150 to 151 °C. For the same compound, the inhibition constant (Ki) at hCA IV is greater than 10 µM. In data set [1], the inhibition at 100 µM amounted to 85% and half-maximal inhibition (IC50) was put at 10 µM. Moreover, on hCA I, the Ki was greater than 10 µM. This compound also had an inhibitory constant (Ki) at hCA IX of 0.0305 µM. This compound registered a Ki at hCA II greater than 10 µM.
Consider `O=C(COc1ccc2ccc(=O)oc2c1)NCCN1CCOCC1` [Compound 12a, N-(2-Morpholinoethyl)-2-((2-oxo-2H-chromen-7-yl)oxy)acetamide], for which the melting point lay within 148 to 149 °C. At hCA IV, this compound registered a Ki greater than 10 µM. For the same compound, in data set [1], the inhibition at 100 µM was 56% and the IC50 was 42.5 µM. At hCA I, this compound came in with a Ki greater than 10 µM. The compound further displayed an inhibition constant Ki at hCA IX greater than 10 µM. The Ki on hCA II is greater than 10 µM.
As to `O=C(COc1ccc2ccc(=O)oc2c1)NCc1ccc(F)cc1` [Compound 6a, N-(4-Fluorobenzyl)-2-((2-oxo-2H-chromen-7-yl)oxy)acetamide], the melting point was 160 to 161 °C. This compound came in with a Ki on hCA IV greater than 10 µM. For the same compound, in data set [1], the inhibition at 100 µM is 63% and 47 µM corresponded to half-maximal inhibition (IC50). The Ki on hCA I is greater than 10 µM. The compound further yielded a Ki at hCA IX of 2.54 µM. On hCA II, the inhibition constant Ki was greater than 10 µM.
Compound `O=C(COc1ccc2ccc(=O)oc2c1)NCCN1CCCCC1` [Compound 13a, 2-((2-Oxo-2H-chromen-7-yl)oxy)-N-(2-(piperidin-1-yl)ethyl)acetamide] showed a melting point of 116 to 117 °C. This compound came in with a Ki at hCA IV greater than 10 µM. In addition, in data set [1], the inhibition at 100 µM is 50% and 100 µM corresponded to half-maximal inhibition (IC50). Also, on hCA I, the inhibitory constant (Ki) is greater than 10 µM. The compound also came in with an inhibition constant Ki at hCA IX of 1.97 µM. In addition, the inhibition constant Ki at hCA II was greater than 10 µM.
For the compound “2-((2-Oxo-2H-chromen-7-yl)oxy)-N-(pyridin-4-ylmethyl)acetamide [Compound 11a]”, in data set [1], the “% LOX Inhibition at 100 Μμ” value was 77%.
Take `COC(=O)c1ccccc1NC(=O)COc1ccc2ccc(=O)oc2c1` [Compound 9a, Methyl 2-(2-((2-oxo-2H-chromen-7-yl)oxy)acetamido)benzoate]: the melting point fell in the range of 213 to 214 °C. Also, the inhibition constant Ki on hCA IV is greater than 10 µM. Besides, the inhibition at 100 µM in data set [1] came to 33%. This compound also gave an inhibitory constant (Ki) on hCA I greater than 10 µM. At hCA IX, this compound had an inhibitory constant (Ki) of 2.73 µM. The compound also had an inhibitory constant (Ki) on hCA II greater than 10 µM.
As for `O=C(COc1ccc2oc(=O)ccc2c1)Nc1ccccc1` [Compound 7b, 2-((2-Oxo-2H-chromen-6-yl)oxy)-N-phenylacetamide], the melting point was 182 to 183 °C. The compound further returned an inhibitory constant (Ki) at hCA IV of 2.65 µM. Besides, in data set [1], the inhibition at 100 µM was found to be 45%. Also, on hCA I, the inhibition constant (Ki) was greater than 10 µM. The compound also gave an inhibitory constant (Ki) on hCA IX of 0.202 µM. For the same compound, on hCA II, the Ki is greater than 10 µM.
For `O=C(COc1ccc2ccc(=O)oc2c1)NCc1ccccc1` [Compound 5a, N-Benzyl-2-((2-oxo-2H-chromen-7-yl)oxy)acetamide], the melting point lay in the range of 167 to 168 °C. The compound further yielded a Ki on hCA IV greater than 10 µM. The inhibition at 100 µM in data set [1] turned out to be 45%. Moreover, at hCA I, the inhibition constant Ki was greater than 10 µM. Besides, on hCA IX, the affinity, expressed as Ki, was 0.0837 µM. At hCA II, the inhibitory constant (Ki) was greater than 10 µM.
Compound `O=C(COc1ccc2oc(=O)ccc2c1)Nc1ccc(F)cc1` [Compound 8b, N-(4-Fluorophenyl)-2-((2-oxo-2H-chromen-6-yl)oxy)acetamide] had a melting point of 206 to 207 °C. The same compound displayed an inhibition constant (Ki) on hCA IV of 0.848 µM. Also, in data set [1], the inhibition at 100 µM was 11%. In addition, at hCA I, the Ki is greater than 10 µM. For the same compound, the Ki on hCA IX amounted to 0.146 µM. The inhibition constant Ki on hCA II was greater than 10 µM.
Turning to `O=c1ccc2cc(O)ccc2o1` [Compound 1b, 6-hydroxycoumarin], in data set [1], the inhibition at 100 µM is 40%.
`O=C(COc1ccc2ccc(=O)oc2c1)Nc1ccc(F)cc1` [Compound 8a, N-(4-Fluorophenyl)-2-((2-oxo-2H-chromen-7-yl)oxy)acetamide] registered a melting point of 208 to 209 °C. The compound also displayed a Ki at hCA IV of 0.35 µM. Also, the inhibition at 100 µM in data set [1] is 43%. On hCA I, this compound showed an inhibition constant (Ki) greater than 10 µM. Further, the Ki at hCA IX turned out to be 0.136 µM. The same compound returned a Ki on hCA II greater than 10 µM.
`O=C(COc1ccc2oc(=O)ccc2c1)NCCN1CCOCC1` [Compound 12b, N-(2-Morpholinoethyl)-2-((2-oxo-2H-chromen-6-yl)oxy)acetamide] yielded a melting point of 149 to 150 °C. The same compound registered a Ki on hCA IV greater than 10 µM. In data set [1], the inhibition at 100 µM was determined as 64% and the half-maximal inhibitory concentration (IC50) is 16.5 µM. In addition, the inhibition constant (Ki) on hCA I is greater than 10 µM. Further, the Ki on hCA IX was greater than 10 µM. The compound further yielded an inhibition constant Ki on hCA II greater than 10 µM.
The compound `O=C(COc1ccc2oc(=O)ccc2c1)NCc1ccccc1` [Compound 5b, N-Benzyl-2-((2-oxo-2H-chromen-6-yl)oxy)acetamide] yielded a melting point of 161 to 162 °C. This compound also had an inhibitory constant (Ki) on hCA IV greater than 10 µM. Moreover, the inhibition at 100 µM in data set [1] stood at 42%. The compound also gave a Ki at hCA I greater than 10 µM. At hCA IX, this compound showed a Ki of 0.0302 µM. Moreover, the Ki on hCA II was greater than 10 µM.
Compound `O=C(COc1ccc2ccc(=O)oc2c1)Nc1ccccc1` [Compound 7a, 2-((2-Oxo-2H-chromen-7-yl)oxy)-N-phenylacetamide] returned a melting point of 182 to 183 °C. In addition, on hCA IV, the Ki was greater than 10 µM. In data set [1], the inhibition at 100 µM came out at 50% and the IC50 amounted to 100 µM. The compound also showed an inhibition constant Ki on hCA I greater than 10 µM. Moreover, the Ki on hCA IX stood at 0.201 µM. Also, the Ki at hCA II is greater than 10 µM.
As to `O=C(COc1ccc2oc(=O)ccc2c1)NCCN1CCCCC1` [Compound 13b, 2-((2-Oxo-2H-chromen-6-yl)oxy)-N-(2-(piperidin-1-yl)ethyl)acetamide], the melting point lay within 115 to 116 °C. This compound showed a Ki at hCA IV greater than 10 µM. Besides, the inhibition at 100 µM in data set [1] is 37.6%. In addition, the Ki at hCA I is greater than 10 µM. Besides, affinity at hCA IX was put at a Ki of 0.274 µM. Further, on hCA II, the Ki was greater than 10 µM.
Compound `O=C(COc1ccc2oc(=O)ccc2c1)NCCc1ccccn1` [Compound 10b, 2-((2-Oxo-2H-chromen-6-yl)oxy)-N-(2-(pyridin-2-yl)ethyl)acetamide] showed a melting point of 141 to 142 °C. In addition, on hCA IV, the Ki was greater than 10 µM. The inhibition at 100 µM in data set [1] stood at 40%. This compound registered an inhibition constant Ki at hCA I greater than 10 µM. The compound also displayed a Ki on hCA IX of 2.15 µM. In addition, the Ki at hCA II is greater than 10 µM.
